The source of these data is ChEMBL document CHEMBL1151918 (Bioorg Med Chem, 2009).

Assay [1] concerns the target T1, Histamine H4 receptor (Homo sapiens, UniProt Q9H3N8). The assay is described as follows: Displacement of [3H]histamine from human histamine H4 receptor expressed in human SK-N-MC cells by liquid scintillation counting. Type of assay: cell-based.
In assay [2] the target is Histamine H3 receptor (Homo sapiens, UniProt Q9Y5N1). The assay is described as follows: Displacement of [3H]N-alpha-methylhistamine from human histamine H3 receptor expressed in human SK-N-MC cells by liquid scintillation counting. In kind it is cell-based.
Sequence of Histamine H3 receptor (Q9Y5N1 whole entry): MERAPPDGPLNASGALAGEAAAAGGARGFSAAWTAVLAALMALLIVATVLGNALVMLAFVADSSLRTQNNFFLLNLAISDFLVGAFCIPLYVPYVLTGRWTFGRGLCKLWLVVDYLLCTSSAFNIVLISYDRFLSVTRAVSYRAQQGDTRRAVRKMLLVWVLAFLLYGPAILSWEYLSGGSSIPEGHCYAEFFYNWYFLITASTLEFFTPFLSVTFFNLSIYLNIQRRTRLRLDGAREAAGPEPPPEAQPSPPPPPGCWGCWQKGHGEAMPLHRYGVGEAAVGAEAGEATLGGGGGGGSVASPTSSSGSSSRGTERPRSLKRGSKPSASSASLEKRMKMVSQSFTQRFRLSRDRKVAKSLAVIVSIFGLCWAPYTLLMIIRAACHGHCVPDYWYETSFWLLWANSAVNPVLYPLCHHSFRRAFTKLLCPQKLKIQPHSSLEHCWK
Assay [3] deals with T1, Histamine H4 receptor. Put plainly: Antagonist activity at human histamine H4 receptor expressed in human SK-N-MC cells assessed as inhibition of 2-[3-(imidazol-4-yl)-propyl]-1-(4-iodo-benzyl)-isothiourea dihydrobromide-induced intrinsic activity. In kind it is functional, cell-based. To be noted: read-out: pA2 (converted).

Structures can show the parent of a compound that is named as a salt.

T1 sequence (Q9H3N8 whole entry): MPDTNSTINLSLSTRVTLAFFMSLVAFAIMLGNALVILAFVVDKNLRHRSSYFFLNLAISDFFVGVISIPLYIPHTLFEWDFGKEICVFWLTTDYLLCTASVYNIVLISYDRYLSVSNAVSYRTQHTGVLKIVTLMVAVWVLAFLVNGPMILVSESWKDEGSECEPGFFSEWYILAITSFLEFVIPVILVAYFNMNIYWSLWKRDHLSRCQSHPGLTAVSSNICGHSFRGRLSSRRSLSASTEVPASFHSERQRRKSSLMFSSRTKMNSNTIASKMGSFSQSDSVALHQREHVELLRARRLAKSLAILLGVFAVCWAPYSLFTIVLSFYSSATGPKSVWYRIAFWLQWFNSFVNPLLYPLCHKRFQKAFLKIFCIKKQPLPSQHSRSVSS

In the case of `N=C(NCc1ccccc1Cl)SCCCc1c[nH]cn1`, the Ki (commonly the equilibrium dissociation constant of an inhibitor or competing ligand from its target) is 0.01 µM in assay [1] and 0.00794 µM in assay [2].
The matching figures for `COc1ccc(CNC(=N)SCCCc2c[nH]cn2)cc1`: 0.0126 µM and 0.00794 µM.
With `Cc1ccc(CCNC(=N)SCCCc2c[nH]cn2)cc1`, the inhibition constant Ki in assay [1] is 0.1 µM; in assay [2] it was 0.0126 µM.
The matching figures for `N=C(NCc1ccc(I)cc1)SCCCc1c[nH]cn1`: 0.01 µM and 0.00316 µM.
The matching figures for `N=C(NCCc1ccc(Cl)cc1)SCCCc1c[nH]cn1`: 0.0316 µM and 0.01 µM.
For the compound `N=C(NCCC(c1ccccc1)c1ccccc1)SCCCc1c[nH]cn1`, the Ki in assay [1] is 0.0251 µM; in assay [2], 0.0316 µM.
For the compound `N=C(NCc1ccccc1)SCCCc1c[nH]cn1`, in assay [3], the Kb is 0.02 µM. Moreover, the Ki in assay [1] is 0.0251 µM; in assay [2], 0.00794 µM.
As to `COc1ccc(CCNC(=N)SCCCc2c[nH]cn2)cc1`, the Ki is 0.158 µM in assay [1] and 0.02 µM in assay [2].
The matching figures for `N=C(NCc1cccc(Cl)c1)SCCCc1c[nH]cn1`: 0.0158 µM and 0.00794 µM.
The matching figures for `N=C(NCc1ccc(F)cc1)SCCCc1c[nH]cn1`: 0.0251 µM and 0.00501 µM.
The matching figures for `Cc1ccc(CNC(=N)SCCCc2c[nH]cn2)cc1`: 0.0251 µM and 0.00631 µM.
`N=C(NCCc1ccccc1)SCCCc1c[nH]cn1`: the Ki in assay [1] is 0.0631 µM; in assay [2], 0.02 µM.
Take `N=C(NCCCc1ccccc1)SCCCc1c[nH]cn1`: the values for the Ki in assay [1] and in assay [2] were 0.0501 µM and 0.01 µM, respectively.
On to `N=C(NCc1ccc(Cl)c(Cl)c1)SCCCc1c[nH]cn1`, for which the Ki is 0.00158 µM in assay [1] and 0.00631 µM in assay [2].
`N=C(NCc1ccc(Br)cc1)SCCCc1c[nH]cn1`: the Ki in assay [1] is 0.01 µM; in assay [2], 0.00251 µM.
For the compound `N=C(N)SCCCc1c[nH]cn1`, the Ki in assay [1] is 0.0126 µM; in assay [2], 0.00251 µM.
Regarding `NC(=NCCCCc1ccccc1)SCCCc1cnc[nH]1`, the Ki was 0.0631 µM in assay [1] and 0.02 µM in assay [2].
The matching figures for `NC(=NCCCc1cnc[nH]1)NCc1ccccc1`: 0.0251 µM and 0.0794 µM.
For the compound `NC(=NCCc1ccc(Br)cc1)SCCCc1cnc[nH]1`, the Ki in assay [1] was 0.0398 µM; in assay [2], 0.00794 µM.
For `N=C(NC=C(c1ccccc1)c1ccccc1)NCCCc1c[nH]cn1`, the figures for the Ki in assay [1] and in assay [2] were 0.158 µM and 0.316 µM, respectively.
`NC(=NCc1ccc(Cl)cc1)SCCCc1cnc[nH]1` [CLOBENPROPIT]: the inhibition constant (Ki) in assay [1] is 0.01 µM.
Consider `N=C(N)SCCc1cnc[nH]1` [IMETIT], for which the Ki in assay [1] is 0.00631 µM; in assay [2], 0.00158 µM.
For `NC(=NCCc1ccc(I)cc1)SCCCc1cnc[nH]1` [IODOPHENPROPIT HYDROBROMIDE], the Ki in assay [1] was 0.0158 µM; in assay [2], 0.00794 µM.
